In patent US20250340538A1, “IMIDAZOLONE DERIVATIVES AS INHIBITORS OF PROTEIN KINASES IN PARTICULAR DYRK1A, CLK1 AND/OR CLK4” (PERHA PHARMACEUTICALS, priority 2021, published 2025):
Like-named read-outs stand apart in the source and are kept apart here.

How the values were obtained:
Type in all cases: biochemical
DYRK1A = molecular target: T1, DYRK1A (Homo sapiens, UniProt Q13627); assay: Radiometric protein kinase assay (33PanQinase Activity Assay), DYRK1A
T1 construct: GST-fusion or His-tag (not specified per kinase); purchased ProQinase GmbH; host or cells: Sf9 insect cells or E. coli (not specified per kinase)
How it was run: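 Recombinant human kinase, expressed in Sf9 or E. coli, in a radiometric [γ-33P]-ATP assay at 30 °C for 60 min. Compounds tested at 10 concentrations from 10 μM to 30 nM, 1% DMSO final. 33Pi incorporation measured by scintillation counting; IC50 from dose-response curves.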

DYRK2 = molecular target: T2, DYRK2 (Homo sapiens, UniProt Q92630); assay: Radiometric protein kinase assay (33PanQinase Activity Assay), DYRK2; conditions: read-out: IC50 on DYRK2 (most potent DYRK2 inhibitors)
T2 construct: GST-fusion or His-tag (not specified per kinase); purchased ProQinase GmbH; host or cells: Sf9 insect cells or E. coli (not specified per kinase)
T2 sequence (Q92630 1-601): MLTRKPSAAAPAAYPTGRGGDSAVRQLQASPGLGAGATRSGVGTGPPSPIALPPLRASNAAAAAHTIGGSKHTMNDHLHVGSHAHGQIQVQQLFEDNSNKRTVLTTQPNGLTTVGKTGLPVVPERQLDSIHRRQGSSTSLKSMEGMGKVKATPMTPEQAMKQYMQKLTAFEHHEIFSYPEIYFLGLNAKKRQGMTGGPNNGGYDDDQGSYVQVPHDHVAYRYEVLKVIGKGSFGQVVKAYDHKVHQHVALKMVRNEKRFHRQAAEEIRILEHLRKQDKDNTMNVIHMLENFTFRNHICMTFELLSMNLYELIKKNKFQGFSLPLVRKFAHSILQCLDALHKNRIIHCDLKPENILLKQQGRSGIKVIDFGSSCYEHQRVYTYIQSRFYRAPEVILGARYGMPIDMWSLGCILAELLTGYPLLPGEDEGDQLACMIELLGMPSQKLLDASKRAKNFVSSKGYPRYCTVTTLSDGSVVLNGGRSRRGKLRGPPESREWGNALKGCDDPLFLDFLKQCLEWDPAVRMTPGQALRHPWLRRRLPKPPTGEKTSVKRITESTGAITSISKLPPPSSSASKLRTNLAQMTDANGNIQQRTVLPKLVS
How it was run: (§1)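 Recombinant human kinases (GST- or His-tagged, full-length or active fragments, Sf9 or E. coli) in radiometric [γ-33P]-ATP assay, 30 °C for 60 min, 1% DMSO. Ten concentrations from 10 μM to 30 nM; 33Pi incorporation counted by scintillation, IC50 from dose-response curves.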

DYRK4 = molecular target: T3, DYRK4 (Homo sapiens, UniProt Q9NR20); assay: Radiometric protein kinase assay (33PanQinase Activity Assay), DYRK4; conditions: read-out: IC50 on DYRK4 (most potent DYRK4 inhibitors)
T3 construct: GST-fusion or His-tag (not specified per kinase); purchased ProQinase GmbH; host or cells: Sf9 insect cells or E. coli (not specified per kinase)
T3 sequence (Q9NR20 1-520): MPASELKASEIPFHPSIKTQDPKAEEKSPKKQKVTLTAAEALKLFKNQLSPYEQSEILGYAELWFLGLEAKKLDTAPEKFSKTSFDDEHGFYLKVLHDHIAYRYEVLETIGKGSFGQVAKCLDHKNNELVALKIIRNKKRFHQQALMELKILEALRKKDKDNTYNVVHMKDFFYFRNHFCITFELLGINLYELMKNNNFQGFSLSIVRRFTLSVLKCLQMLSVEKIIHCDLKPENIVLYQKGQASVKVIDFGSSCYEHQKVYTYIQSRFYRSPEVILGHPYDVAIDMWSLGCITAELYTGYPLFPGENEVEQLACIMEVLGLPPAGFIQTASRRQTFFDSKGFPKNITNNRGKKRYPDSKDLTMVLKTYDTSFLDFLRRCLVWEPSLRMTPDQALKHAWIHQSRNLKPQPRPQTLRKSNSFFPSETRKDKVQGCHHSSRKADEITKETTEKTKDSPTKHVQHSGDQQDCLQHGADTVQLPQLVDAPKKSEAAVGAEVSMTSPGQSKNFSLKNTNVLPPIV
Procedure: (§2) Assays were performed by ProQinase GmbH (Engesserstr. 4, D-79108 Freiburg, Germany. www.proqinase.com). The IC50 profile of all compounds was determined using 12 protein kinases (CDK2/cyclin E, CK1ε, CLK1, 2, 3, 4, DYRK1A, 1B, 2, 3, 4, GSK3β).
(§3) The compounds were provided as […] in 100% DMSO. Prior to testing, the 1 μM stock solutions were subjected to a serial, semi-logarithmic dilution using 100% DMSO as a solvent. […] In the process, 90 μl H2O were added to each well of each compound dilution plate. To minimize potential precipitation, the H2O was added to each plate only a few minutes before the transfer of the compound solutions into the assay plates. The plate was shaken thoroughly, resulting in a compound dilution plate/10% DMSO.
For the assays (see below), 5 μL solution from each well of the compound dilution plates/10% DMSO were transferred into the assay plates. The final volume of the assay was 50 μL. All compounds were tested at 10 final assay concentrations in the range from 10 μM to 30 nM. The final DMSO concentration in the reaction cocktails was 1% in all cases. […]
The reaction cocktails were incubated at 30° C. for 60 minutes. […] Incorporation of ^33Pi was determined with a microplate scintillation counter (Microbeta, Wallac). The IC50 values for all compounds were calculated from the dose response curves […]

DYRK1B = molecular target: T4, DYRK1B (Homo sapiens, UniProt Q9Y463); assay: Radiometric protein kinase assay (33PanQinase Activity Assay), DYRK1B; conditions: read-out: IC50 on DYRK1B (most potent DYRK1B inhibitors)
T4 construct: GST-fusion or His-tag (not specified per kinase); purchased ProQinase GmbH; host or cells: Sf9 insect cells or E. coli (not specified per kinase)
T4 sequence (Q9Y463 whole entry, the tested form may be a part): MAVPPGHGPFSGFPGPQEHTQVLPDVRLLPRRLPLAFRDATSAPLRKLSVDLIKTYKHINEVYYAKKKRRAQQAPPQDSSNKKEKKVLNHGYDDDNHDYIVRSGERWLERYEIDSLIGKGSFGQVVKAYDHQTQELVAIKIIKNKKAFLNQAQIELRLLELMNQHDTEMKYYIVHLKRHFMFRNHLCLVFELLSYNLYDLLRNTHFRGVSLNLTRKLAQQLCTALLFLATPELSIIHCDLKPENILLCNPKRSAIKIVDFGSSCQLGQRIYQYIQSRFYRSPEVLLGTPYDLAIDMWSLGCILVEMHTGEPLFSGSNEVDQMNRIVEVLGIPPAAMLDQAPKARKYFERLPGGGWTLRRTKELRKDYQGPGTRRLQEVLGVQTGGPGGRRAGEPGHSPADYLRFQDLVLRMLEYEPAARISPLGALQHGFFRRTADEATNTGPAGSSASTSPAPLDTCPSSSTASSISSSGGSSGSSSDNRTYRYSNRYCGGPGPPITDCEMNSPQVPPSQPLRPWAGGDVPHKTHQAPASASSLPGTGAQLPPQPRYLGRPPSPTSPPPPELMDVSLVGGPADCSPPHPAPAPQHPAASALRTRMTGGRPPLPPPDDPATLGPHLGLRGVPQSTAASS
Procedure: as §2, §3
For the assays (see below), 5 μL solution from each well of the compound dilution plates/10% DMSO were transferred into the assay plates. The final volume of the assay was 50 μL. All compounds were tested at 10 final assay concentrations in the range from 10 μM to 30 nM. The final DMSO concentration in the reaction cocktails was 1% in all cases.
All protein kinases provided by ProQinase were expressed in Sf9 insect cells or in E. coli as recombinant GST-fusion proteins or His-tagged proteins, either as full-length or enzymatically active fragments. All kinases were produced from human cDNAs and purified by either GSH-affinity chromatography or immobilized metal. Affinity tags were removed from a number of kinases during purification. The purity of the protein kinases was examined by SDS-PAGE/Coomassie staining, the identity was checked by mass spectroscopy.
A radiometric protein kinase assay (33PanQinase® Activity Assay) was used for measuring the kinase activity of the 12 protein kinases. All kinase assays were performed in 96-well FlashPlates™ from PerkinElmer (Boston, MA, USA) in a 50 μL reaction volume. The reaction cocktail was pipetted in four steps in the following order: • 25 μL of assay buffer (standard buffer/[γ-^33P]-ATP), • 10 μL of ATP solution (in H2O), • 5 μL of test compound (in 10% DMSO), • 10 μL of enzyme/substrate mixture.
The reaction cocktails were incubated at 30° C. for 60 minutes. The reaction was stopped with 50 μL of 2% (v/v) H3PO4, plates were aspirated and washed two times with 200 μL 0.9% (w/v) NaCl. Incorporation of ^33Pi was determined with a microplate scintillation counter (Microbeta, Wallac). The IC50 values for all compounds were calculated from the dose response curves
As a parameter for assay quality, the Z′-factor (Zhang et al., J. Biomol. Screen. 2: 67-73, 1999) for the low and high controls of each assay plate (n=8) was used. ProQinase's criterion for repetition of an assay plate is a Z′-factor below 0.4 (Iversen et al., J. Biomol. Screen. 3: 247-252, 2006).

CLK4 = molecular target: T5, CLK4 (Homo sapiens, UniProt Q9HAZ1); assay: Radiometric protein kinase assay (33PanQinase Activity Assay), CLK4; conditions: read-out: IC50 on CLK4 (most potent CLK4 inhibitors)
T5 construct: GST-fusion or His-tag (not specified per kinase); purchased ProQinase GmbH; host or cells: Sf9 insect cells or E. coli (not specified per kinase)
T5 sequence (Q9HAZ1 whole entry, the tested form may be a part): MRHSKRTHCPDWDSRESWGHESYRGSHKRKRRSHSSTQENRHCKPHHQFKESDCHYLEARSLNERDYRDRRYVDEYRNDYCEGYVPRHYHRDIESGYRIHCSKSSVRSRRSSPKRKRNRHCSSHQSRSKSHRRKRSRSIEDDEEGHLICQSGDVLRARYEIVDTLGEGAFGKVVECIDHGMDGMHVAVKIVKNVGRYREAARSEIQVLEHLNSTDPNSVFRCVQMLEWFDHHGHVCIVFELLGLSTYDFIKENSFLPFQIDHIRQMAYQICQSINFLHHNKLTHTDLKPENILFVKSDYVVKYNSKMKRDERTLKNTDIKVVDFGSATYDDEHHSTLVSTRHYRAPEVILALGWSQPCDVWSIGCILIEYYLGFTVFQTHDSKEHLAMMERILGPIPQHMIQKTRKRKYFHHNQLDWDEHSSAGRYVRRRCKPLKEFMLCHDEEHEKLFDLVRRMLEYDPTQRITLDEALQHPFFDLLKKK
How it was run: as §1

CLK1 = molecular target: T6, CLK1 (Homo sapiens, UniProt P49759); assay: Radiometric protein kinase assay (33PanQinase Activity Assay), CLK1; conditions: read-out: Potency Class CLK1
T6 construct: GST-fusion or His-tag (not specified per kinase); purchased ProQinase GmbH; host or cells: Sf9 insect cells or E. coli (not specified per kinase)
T6 sequence (P49759 whole entry, the tested form may be a part): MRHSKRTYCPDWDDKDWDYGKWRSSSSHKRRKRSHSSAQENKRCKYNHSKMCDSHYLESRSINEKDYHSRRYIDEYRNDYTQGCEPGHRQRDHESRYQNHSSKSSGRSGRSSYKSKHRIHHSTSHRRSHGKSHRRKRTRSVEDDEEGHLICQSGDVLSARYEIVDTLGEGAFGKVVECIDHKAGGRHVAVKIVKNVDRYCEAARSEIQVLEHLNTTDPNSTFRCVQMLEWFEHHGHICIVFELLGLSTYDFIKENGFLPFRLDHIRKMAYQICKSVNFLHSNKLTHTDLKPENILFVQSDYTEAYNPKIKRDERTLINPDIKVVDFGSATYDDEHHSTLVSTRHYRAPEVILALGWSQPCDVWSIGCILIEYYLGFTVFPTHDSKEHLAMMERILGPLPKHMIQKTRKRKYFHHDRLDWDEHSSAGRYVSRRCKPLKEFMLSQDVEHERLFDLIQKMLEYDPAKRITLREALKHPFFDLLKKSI
How it was run: as §1

IC50 (DYRK1A; IC50 class A to E, read-out: Potency Class DYRK1A): ≤ 5 nM
IC50 (DYRK1A; class by IC50 on DYRK1A, from dose-response curves, read-out: Potency Class DYRK1A): < 5 nM
Selectivity Class DYRK1A vs. CLK1 (DYRK1A; ratio of IC50 on CLK1 over IC50 on DYRK1A): II (ratio between 2 and 10 fold)
Selectivity Class DYRK1A vs. DYRK1B (DYRK1A; ratio of IC50 on DYRK1B over IC50 on DYRK1A): II (ratio between 2 and 10 fold)
IC50 (DYRK1A; read-out: IC50 on DYRK1A (most potent DYRK1A inhibitors)): ≤ 10 nM
IC50 (DYRK2): ≤ 250 nM
IC50 (DYRK4): ≤ 300 nM
IC50 (DYRK1B): ≤ 10 nM
IC50 (CLK4): ≤ 10 nM
IC50 (CLK1; IC50 class A to E): 10 to 25 nM
IC50 (CLK1; class by IC50 on CLK1, from dose-response curves): 10 to 25 nM
Structure (SMILES): O=C1NC(NC23CC4CC(CC(O)(C4)C2)C3)=N/C1=C\c1ccc2ncccc2c1 [Compound 50, (4Z)-2-[(3-hydroxy-1-adamantyl)amino]-4-(6-quinolylmethylene)-1H-imidazol-5-one]
